Measurements: PMC10574094, “Discovery of a SHP2 Degrader with In Vivo Anti-Tumor Activity” (Molecules, 2023)
Where “and” joins values, the source holds several entries; their conditions need not be identical. Equal values may be shown once.

Columns and labels:
LYP = LYP (Homo sapiens, UniProt Q9Y2R2); assay: PTP inhibition assay (pNPP); type: biochemical
Protocol: (§1) PTP activity was assayed using p-nitrophenyl phosphate (pNPP) as a substrate in DMG buffer (50 mM DMG, pH 7.0, 1 mM EDTA, 150 mM NaCl, 2 mM DTT, 0.1 mg/mL BSA) at 25 °C. The assays were performed in 96-well plates. To determine the IC50 values, the reaction was initiated by the addition of enzyme (final concentration = 10 nM) to a reaction mixture (0.2 mL) containing pNPP (at a final concentration close to the Kms of tested enzymes, in specific: 0.05 mM for CDC-14A; 0.5 mM for FAP-1; 2 mM for TC-PTP, PTP1B, STEP, LWM-PTP, and PTPα; 3 mM for SHP1; 4 mM for Laforin; 5 mM for LYP, CD45, and VHR; 6 mM for PTP-MEG2 and HePTP) with various concentrations of inhibitors. The reaction rate was measured using a SpectraMax Plus 384 Microplate Spectrophotometer (Molecular Devices, San Jose, CA, USA). Data were fitted using the SigmaPlot Enzyme Kinetics Module (Systat Software, Inc., San Jose, CA, USA).

STEP = STEP (Homo sapiens, UniProt P54829); assay: PTP inhibition assay (pNPP); type: biochemical
Protocol: as §1

CD45 = CD45 (Homo sapiens, UniProt P08575); assay: PTP inhibition assay (pNPP); type: biochemical
Protocol: as §1

SHP1 = SHP1 (Homo sapiens, UniProt P29350); assay: PTP inhibition assay (pNPP); type: biochemical
Protocol: as §1

FAP-1 = FAP-1 (Homo sapiens, UniProt Q12923); assay: PTP inhibition assay (pNPP); type: biochemical
Protocol: as §1

PTP1B = PTP1B (Homo sapiens, UniProt P18031); assay: PTP inhibition assay (pNPP); type: biochemical
Protocol: as §1

PTP-α = PTP-α (Homo sapiens, UniProt P18433); assay: PTP inhibition assay (pNPP); type: biochemical
Protocol: as §1

LMW-PTP = LMW-PTP (Homo sapiens, UniProt P24666); assay: PTP inhibition assay (pNPP); type: biochemical
Protocol: as §1

TC-PTP = TC-PTP (Homo sapiens, UniProt P17706); assay: PTP inhibition assay (pNPP); type: biochemical
Protocol: as §1

PTP-MEG2 = PTP-MEG2 (Homo sapiens, UniProt P43378); assay: PTP inhibition assay (pNPP); type: biochemical
Protocol: as §1

VHR = VHR (Homo sapiens, UniProt P51452); assay: PTP inhibition assay (pNPP); type: biochemical
Protocol: as §1

CDC-14A = CDC-14A (Homo sapiens, UniProt Q9UNH5); assay: PTP inhibition assay (pNPP); type: biochemical
Protocol: as §1

Laforin = Laforin (Homo sapiens, UniProt O95278); assay: PTP inhibition assay (pNPP); type: biochemical
Protocol: as §1

HePTP = HePTP (Homo sapiens, UniProt P35236); assay: PTP inhibition assay (pNPP); type: biochemical
Protocol: as §1

[1] = Pharmacokinetics in mice, single IP injection; type: in vivo; conditions: for Plasma concentration / concentration at 0.5 h / concentration at 1 h / concentration at 2 h / concentration at 3 h / concentration at 6 h: individual animals; for concentration at 0.5 h / concentration at 1 h / concentration at 2 h / concentration at 3 h / concentration at 6 h / Cmax / half-life / AUC / Tmax: plasma; for concentration at 0.5 h / concentration at 1 h / concentration at 2 h / concentration at 3 h / concentration at 6 h: intraperitoneal; for Cmax / half-life / AUC / Tmax / t1/2: mice
Protocol: Experiments on mice were carried out in accordance with the regulations of the Institutional Animal Care and Use Committees at Purdue University. All mice were housed under pathogen-free conditions in the animal facility and received autoclaved water and food. Eight to ten weeks-old Nude mice were used in the study.
For pharmacokinetic studies, mice were administered a single dose of P9 at 25 or 50 mg/kg via IP injection. Blood samples were collected through the tail vein at indicated time points after injection. Isoflurane was used as an anesthetic. All blood samples were centrifuged at 1500 g for 5 min, and plasma was separated and stored at –80 °C until analysis by a validated method based on reversed-phase liquid chromatography coupled to mass-spectrometric detection (LC/MS) using a previously published procedure.

[2] = Nude, mouse, ip, 25 mg/kg, single IP 25 mg/kg
[3] = Nude, mouse, ip, 50 mg/kg, single IP 50 mg/kg
[4] = Nude, mouse, single IP 25 mg/kg
[5] = Nude, mouse, single IP 50 mg/kg

Sequence of PTP-α (P18433 20-802): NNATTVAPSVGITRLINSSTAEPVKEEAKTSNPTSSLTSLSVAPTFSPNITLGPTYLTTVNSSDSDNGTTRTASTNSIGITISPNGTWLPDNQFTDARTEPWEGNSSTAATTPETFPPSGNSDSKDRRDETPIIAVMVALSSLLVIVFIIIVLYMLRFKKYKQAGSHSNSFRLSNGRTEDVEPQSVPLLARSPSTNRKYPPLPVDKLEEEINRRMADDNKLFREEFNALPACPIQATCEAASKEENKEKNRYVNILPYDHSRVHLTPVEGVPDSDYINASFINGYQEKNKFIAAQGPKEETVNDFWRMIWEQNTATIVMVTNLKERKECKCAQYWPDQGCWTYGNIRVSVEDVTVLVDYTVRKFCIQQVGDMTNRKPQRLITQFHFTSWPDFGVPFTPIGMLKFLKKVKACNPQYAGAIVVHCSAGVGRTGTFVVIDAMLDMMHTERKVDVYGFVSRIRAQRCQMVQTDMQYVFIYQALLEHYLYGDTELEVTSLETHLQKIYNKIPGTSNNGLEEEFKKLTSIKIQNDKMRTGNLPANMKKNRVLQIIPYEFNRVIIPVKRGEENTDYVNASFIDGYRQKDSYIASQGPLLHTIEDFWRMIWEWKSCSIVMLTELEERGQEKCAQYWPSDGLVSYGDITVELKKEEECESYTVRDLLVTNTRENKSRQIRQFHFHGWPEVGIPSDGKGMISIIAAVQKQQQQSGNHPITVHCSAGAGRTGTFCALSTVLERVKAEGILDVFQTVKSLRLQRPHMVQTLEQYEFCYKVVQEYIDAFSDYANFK
Sequence of LMW-PTP (P24666 whole entry, species assumed): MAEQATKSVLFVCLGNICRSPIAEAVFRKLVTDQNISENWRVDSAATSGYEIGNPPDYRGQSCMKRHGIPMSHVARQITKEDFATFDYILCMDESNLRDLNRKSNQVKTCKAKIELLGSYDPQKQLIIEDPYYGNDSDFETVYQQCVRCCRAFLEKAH
Sequence of PTP-MEG2 (P43378 whole entry): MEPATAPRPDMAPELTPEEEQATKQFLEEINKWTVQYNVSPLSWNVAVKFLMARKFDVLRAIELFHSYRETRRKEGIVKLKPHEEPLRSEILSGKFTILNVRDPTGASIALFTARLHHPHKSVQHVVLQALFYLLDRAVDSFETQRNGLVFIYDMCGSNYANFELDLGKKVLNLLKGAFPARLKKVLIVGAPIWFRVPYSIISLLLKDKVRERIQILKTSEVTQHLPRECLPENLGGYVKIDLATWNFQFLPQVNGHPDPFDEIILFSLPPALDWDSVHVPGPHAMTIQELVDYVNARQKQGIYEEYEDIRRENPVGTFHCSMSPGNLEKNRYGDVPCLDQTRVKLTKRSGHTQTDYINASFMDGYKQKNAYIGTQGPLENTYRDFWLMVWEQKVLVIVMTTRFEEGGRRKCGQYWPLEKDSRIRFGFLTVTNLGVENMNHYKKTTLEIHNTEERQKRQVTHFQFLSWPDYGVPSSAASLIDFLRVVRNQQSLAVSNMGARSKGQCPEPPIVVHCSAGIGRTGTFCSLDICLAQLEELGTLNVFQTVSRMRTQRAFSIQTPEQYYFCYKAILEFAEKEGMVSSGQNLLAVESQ
Sequence of SHP1 (P29350 whole entry): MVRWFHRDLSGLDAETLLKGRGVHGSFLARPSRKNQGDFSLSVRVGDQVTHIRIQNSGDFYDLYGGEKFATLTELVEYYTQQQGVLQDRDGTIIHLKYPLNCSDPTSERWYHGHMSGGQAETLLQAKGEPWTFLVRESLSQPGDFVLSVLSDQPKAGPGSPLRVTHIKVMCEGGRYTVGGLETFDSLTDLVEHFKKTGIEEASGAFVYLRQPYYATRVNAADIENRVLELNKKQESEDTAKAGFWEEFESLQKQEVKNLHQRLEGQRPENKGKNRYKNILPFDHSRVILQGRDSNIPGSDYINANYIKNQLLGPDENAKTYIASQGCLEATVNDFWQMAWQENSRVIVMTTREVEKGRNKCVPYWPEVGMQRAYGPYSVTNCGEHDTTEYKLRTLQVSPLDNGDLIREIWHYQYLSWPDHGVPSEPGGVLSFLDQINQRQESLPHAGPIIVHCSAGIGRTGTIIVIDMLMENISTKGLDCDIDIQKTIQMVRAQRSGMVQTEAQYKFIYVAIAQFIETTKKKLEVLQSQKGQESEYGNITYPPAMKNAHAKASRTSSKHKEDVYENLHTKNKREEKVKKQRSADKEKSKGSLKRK
Sequence of FAP-1 (Q12923 whole entry, species assumed): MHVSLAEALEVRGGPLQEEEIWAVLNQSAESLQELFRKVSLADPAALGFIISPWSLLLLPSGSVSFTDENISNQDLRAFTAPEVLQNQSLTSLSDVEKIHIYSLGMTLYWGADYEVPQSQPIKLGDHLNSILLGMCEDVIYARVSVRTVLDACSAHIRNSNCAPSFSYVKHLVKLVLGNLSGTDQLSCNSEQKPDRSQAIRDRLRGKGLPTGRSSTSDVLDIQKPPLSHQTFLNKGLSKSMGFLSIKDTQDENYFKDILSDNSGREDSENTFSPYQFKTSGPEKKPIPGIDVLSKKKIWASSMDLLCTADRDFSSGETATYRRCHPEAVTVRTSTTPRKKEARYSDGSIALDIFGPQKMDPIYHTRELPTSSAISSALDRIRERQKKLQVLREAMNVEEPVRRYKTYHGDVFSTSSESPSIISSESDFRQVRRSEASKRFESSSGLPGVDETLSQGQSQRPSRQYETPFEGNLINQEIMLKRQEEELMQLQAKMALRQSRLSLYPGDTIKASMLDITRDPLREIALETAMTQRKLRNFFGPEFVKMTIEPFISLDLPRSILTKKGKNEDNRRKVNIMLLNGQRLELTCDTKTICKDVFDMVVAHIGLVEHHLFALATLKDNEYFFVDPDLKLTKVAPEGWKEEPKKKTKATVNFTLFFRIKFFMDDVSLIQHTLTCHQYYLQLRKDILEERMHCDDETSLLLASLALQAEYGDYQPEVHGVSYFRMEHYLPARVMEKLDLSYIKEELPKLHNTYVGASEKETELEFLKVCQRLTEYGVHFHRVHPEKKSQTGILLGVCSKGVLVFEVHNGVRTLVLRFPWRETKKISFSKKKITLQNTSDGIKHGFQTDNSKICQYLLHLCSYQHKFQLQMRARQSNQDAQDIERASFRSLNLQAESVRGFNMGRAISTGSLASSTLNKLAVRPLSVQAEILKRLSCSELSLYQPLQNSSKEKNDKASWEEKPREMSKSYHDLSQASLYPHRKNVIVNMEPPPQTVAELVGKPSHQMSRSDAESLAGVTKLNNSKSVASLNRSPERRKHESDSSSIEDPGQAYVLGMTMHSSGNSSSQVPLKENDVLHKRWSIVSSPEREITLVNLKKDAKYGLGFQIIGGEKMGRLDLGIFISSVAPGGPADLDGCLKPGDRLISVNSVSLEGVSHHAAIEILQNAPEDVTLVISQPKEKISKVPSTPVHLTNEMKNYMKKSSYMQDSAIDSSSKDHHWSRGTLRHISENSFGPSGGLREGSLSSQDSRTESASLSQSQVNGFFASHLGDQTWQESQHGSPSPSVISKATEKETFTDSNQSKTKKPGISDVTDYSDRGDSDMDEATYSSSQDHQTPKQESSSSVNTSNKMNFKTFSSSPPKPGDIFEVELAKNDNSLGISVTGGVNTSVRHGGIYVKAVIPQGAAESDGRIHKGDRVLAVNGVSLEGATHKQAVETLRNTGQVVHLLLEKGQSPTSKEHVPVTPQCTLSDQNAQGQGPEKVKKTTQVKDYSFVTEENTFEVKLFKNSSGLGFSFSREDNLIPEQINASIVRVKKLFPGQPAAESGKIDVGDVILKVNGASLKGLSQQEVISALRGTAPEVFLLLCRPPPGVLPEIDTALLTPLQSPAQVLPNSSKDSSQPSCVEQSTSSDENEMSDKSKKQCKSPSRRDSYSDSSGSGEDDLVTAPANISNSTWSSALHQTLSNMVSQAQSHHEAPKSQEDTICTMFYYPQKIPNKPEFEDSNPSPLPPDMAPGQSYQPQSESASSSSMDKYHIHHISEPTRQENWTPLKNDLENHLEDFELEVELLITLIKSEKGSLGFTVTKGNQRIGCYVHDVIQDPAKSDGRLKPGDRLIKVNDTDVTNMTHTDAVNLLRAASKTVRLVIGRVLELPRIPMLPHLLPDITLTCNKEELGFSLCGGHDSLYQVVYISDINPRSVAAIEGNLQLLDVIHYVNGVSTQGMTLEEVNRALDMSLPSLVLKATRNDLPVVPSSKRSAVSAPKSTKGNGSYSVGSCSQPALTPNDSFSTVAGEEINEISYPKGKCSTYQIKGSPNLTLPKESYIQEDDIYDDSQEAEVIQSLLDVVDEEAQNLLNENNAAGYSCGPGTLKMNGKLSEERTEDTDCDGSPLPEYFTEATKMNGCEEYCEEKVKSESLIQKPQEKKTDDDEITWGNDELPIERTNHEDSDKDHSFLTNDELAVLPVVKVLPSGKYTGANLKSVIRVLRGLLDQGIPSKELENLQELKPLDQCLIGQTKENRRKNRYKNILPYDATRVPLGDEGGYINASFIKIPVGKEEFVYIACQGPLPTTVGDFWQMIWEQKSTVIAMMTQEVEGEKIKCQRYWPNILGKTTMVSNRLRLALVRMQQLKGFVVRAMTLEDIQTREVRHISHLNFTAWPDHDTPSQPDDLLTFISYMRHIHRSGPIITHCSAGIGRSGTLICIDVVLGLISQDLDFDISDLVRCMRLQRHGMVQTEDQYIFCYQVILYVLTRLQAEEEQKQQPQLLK
Sequence of PTP1B (P18031 whole entry, species assumed): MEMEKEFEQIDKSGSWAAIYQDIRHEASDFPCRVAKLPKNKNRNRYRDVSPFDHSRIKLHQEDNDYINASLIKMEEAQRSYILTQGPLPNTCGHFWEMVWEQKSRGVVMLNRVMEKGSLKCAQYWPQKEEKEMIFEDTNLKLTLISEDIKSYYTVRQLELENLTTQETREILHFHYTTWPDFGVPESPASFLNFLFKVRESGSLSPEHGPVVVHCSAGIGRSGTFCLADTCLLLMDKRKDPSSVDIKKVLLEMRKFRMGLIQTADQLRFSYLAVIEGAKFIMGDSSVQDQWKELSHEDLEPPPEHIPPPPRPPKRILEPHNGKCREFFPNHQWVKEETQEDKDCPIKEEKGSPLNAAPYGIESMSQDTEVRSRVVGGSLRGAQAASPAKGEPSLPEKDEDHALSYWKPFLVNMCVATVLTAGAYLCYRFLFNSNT

Cc1ncsc1-c1ccc([C@H](C)NC(=O)[C@@H]2C[C@@H](O)CN2C(=O)[C@@H](NC(=O)CCCCCCCCCN2CCN(C(=O)CCCCCC3(CN)CCN(c4cnc(Sc5cccc(Cl)c5Cl)c(N)n4)CC3)CC2)C(C)(C)C)cc1 [P9, (2S,4R)-1-((S)-2-(10-(4-(6-(1-(6-amino-5-((2,3-dichlorophenyl)thio)pyrazin-2-yl)-4-(aminomethyl)piperidin-4-yl)hexanoyl)piperazin-1-yl)decanamido)-3,3-dimethylbutanoyl)-4-hydroxy-N-((S)-1-(4-(4-methylthiazol-5-yl)phenyl)ethyl)pyrrolidine-2-carboxamide]
Fold selectivity LYP (LYP; over SHP2): > 105
IC50 (LYP; pNPP 5 mM): > 10 µM
Fold selectivity STEP (STEP; over SHP2): > 105
IC50 (STEP; pNPP 2 mM): > 10 µM
Fold selectivity CD45 (CD45; over SHP2): > 105
IC50 (CD45; pNPP 5 mM): > 10 µM
Fold selectivity SHP1 (SHP1; over SHP2): > 105
IC50 (SHP1; pNPP 3 mM): > 10 µM
Fold selectivity FAP-1 (FAP-1; over SHP2): > 105
IC50 (FAP-1; pNPP 0.5 mM): > 10 µM
Fold selectivity PTP1B (PTP1B; over SHP2): > 105
IC50 (PTP1B; pNPP 2 mM): > 10 µM
Fold selectivity PTP-α (PTP-α; over SHP2): > 105
IC50 (PTP-α; pNPP 2 mM): > 10 µM
Fold selectivity LMW-PTP (LMW-PTP; over SHP2): > 105
IC50 (LMW-PTP; pNPP 2 mM): > 10 µM
Fold selectivity TC-PTP (TC-PTP; over SHP2): > 105
IC50 (TC-PTP; pNPP 2 mM): > 10 µM
Fold selectivity PTP-MEG2 (PTP-MEG2; over SHP2): > 105
IC50 (PTP-MEG2; pNPP 6 mM): > 10 µM
Fold selectivity VHR (VHR; over SHP2): > 105
IC50 (VHR; pNPP 5 mM): > 10 µM
Fold selectivity CDC-14A (CDC-14A; over SHP2): > 105
IC50 (CDC-14A; pNPP 0.05 mM): > 10 µM
Fold selectivity Laforin (Laforin; over SHP2): > 105
IC50 (Laforin; pNPP 4 mM): > 10 µM
Fold selectivity HePTP (HePTP; over SHP2): > 105
IC50 (HePTP; pNPP 6 mM): > 10 µM
Plasma concentration ([1]; 25 mg/kg IP, 0.5 h): 0.52 µM and 0.75 µM
Plasma concentration ([1]; 25 mg/kg IP, 1 h): 1.2 µM and 1.32 µM
Plasma concentration ([1]; 25 mg/kg IP, 2 h): 1.09 µM and 0.93 µM
Plasma concentration ([1]; 25 mg/kg IP, 3 h): 0.62 µM and 0.59 µM
Plasma concentration ([1]; 25 mg/kg IP, 6 h): 0.41 µM and 0.39 µM
Plasma concentration ([1]; 25 mg/kg IP, 24 h): 0.13 µM and 0.18 µM and 0.06 µM
Plasma concentration ([1]; 50 mg/kg IP, 0.5 h): 1.82 µM and 1.96 µM
Plasma concentration ([1]; 50 mg/kg IP, 1 h): 2.7 µM and 2.55 µM
Plasma concentration ([1]; 50 mg/kg IP, 2 h): 1.76 µM and 1.7 µM
Plasma concentration ([1]; 50 mg/kg IP, 3 h): 1.22 µM and 1.15 µM
Plasma concentration ([1]; 50 mg/kg IP, 6 h): 0.7 µM and 0.68 µM
Plasma concentration ([1]; 50 mg/kg IP, 24 h): 0.16 µM and 0.24 µM and 0.1 µM
concentration at 0.5 h ([1]; Nude, mouse, 25 mg/kg, 25 mg/kg IP, 0.5 h): 560 nM
concentration at 1 h ([1]; Nude, mouse, 25 mg/kg, 25 mg/kg IP, 1 h): 1020 nM
concentration at 2 h ([1]; Nude, mouse, 25 mg/kg, 25 mg/kg IP, 2 h): 920 nM
concentration at 3 h ([1]; Nude, mouse, 25 mg/kg, 25 mg/kg IP, 3 h): 550 nM
concentration at 6 h ([1]; Nude, mouse, 25 mg/kg, 25 mg/kg IP, 6 h): 360 nM
concentration at 0.5 h ([1]; Nude, mouse, 50 mg/kg, 50 mg/kg IP, 0.5 h): 1760 nM
concentration at 1 h ([1]; Nude, mouse, 50 mg/kg, 50 mg/kg IP, 1 h): 2510 nM
concentration at 2 h ([1]; Nude, mouse, 50 mg/kg, 50 mg/kg IP, 2 h): 1660 nM
concentration at 3 h ([1]; Nude, mouse, 50 mg/kg, 50 mg/kg IP, 3 h): 1030 nM
concentration at 6 h ([1]; Nude, mouse, 50 mg/kg, 50 mg/kg IP, 6 h): 550 nM
Cmax [1, 2]: 1180 ± 130 nM
half-life [1, 2]: 223 ± 43.2 min
Cmax [1, 3]: 2510 ± 190 nM
half-life [1, 3]: 181 ± 28.8 min
AUC [1, 4]: 8.51 ± 0.6 µM·h
Tmax [1, 4]: 2 h
AUC [1, 5]: 15.1 ± 0.99 µM·h
Tmax [1, 5]: 2 h
Cmax ([1]; single IP 25 mg/kg, 25 mg/kg): 1200 ± 100 nM
t1/2 ([1]; single IP 25 mg/kg, 25 mg/kg): 3.7 ± 0.7 h
Cmax ([1]; single IP 50 mg/kg, 50 mg/kg): 2500 ± 200 nM
t1/2 ([1]; single IP 50 mg/kg, 50 mg/kg): 3.0 ± 0.5 h
